According to patent US11866450B2, “Modulators of Cystic Fibrosis Transmembrane Conductance regulator, pharmaceutical compositions, methods of treatment, and process for making the modulators” (priority 2018, dated 2024):

Molecular target: CFTR-mediated chloride transport (Homo sapiens, UniProt P13569)
Assay type: cell-based
Conditions: enteroid cells incubated with test compound 18-24 hours, acute 10 μM forskolin and 300 nM Compound III; for Max. Activity: % of chloride transport with 3 μM Compound A, 3 μM Compound II and 300 nM acute Compound III triple combination control
Method in brief: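 Human intestinal enteroid cells incubated with compound 18–24 h at 37° C., then membrane potential dye (FLIPR) read 15 min after chloride-free stimulation with 10 μM forskolin, 100 μM IBMX and 300 nM Compound III. AUC expressed as % of triple-combination control (3 μM Compound A, 3 μM Compound II, 300 nM Compound III).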

CFTR-mediated chloride transport, sequence (P13569 whole entry, looked up): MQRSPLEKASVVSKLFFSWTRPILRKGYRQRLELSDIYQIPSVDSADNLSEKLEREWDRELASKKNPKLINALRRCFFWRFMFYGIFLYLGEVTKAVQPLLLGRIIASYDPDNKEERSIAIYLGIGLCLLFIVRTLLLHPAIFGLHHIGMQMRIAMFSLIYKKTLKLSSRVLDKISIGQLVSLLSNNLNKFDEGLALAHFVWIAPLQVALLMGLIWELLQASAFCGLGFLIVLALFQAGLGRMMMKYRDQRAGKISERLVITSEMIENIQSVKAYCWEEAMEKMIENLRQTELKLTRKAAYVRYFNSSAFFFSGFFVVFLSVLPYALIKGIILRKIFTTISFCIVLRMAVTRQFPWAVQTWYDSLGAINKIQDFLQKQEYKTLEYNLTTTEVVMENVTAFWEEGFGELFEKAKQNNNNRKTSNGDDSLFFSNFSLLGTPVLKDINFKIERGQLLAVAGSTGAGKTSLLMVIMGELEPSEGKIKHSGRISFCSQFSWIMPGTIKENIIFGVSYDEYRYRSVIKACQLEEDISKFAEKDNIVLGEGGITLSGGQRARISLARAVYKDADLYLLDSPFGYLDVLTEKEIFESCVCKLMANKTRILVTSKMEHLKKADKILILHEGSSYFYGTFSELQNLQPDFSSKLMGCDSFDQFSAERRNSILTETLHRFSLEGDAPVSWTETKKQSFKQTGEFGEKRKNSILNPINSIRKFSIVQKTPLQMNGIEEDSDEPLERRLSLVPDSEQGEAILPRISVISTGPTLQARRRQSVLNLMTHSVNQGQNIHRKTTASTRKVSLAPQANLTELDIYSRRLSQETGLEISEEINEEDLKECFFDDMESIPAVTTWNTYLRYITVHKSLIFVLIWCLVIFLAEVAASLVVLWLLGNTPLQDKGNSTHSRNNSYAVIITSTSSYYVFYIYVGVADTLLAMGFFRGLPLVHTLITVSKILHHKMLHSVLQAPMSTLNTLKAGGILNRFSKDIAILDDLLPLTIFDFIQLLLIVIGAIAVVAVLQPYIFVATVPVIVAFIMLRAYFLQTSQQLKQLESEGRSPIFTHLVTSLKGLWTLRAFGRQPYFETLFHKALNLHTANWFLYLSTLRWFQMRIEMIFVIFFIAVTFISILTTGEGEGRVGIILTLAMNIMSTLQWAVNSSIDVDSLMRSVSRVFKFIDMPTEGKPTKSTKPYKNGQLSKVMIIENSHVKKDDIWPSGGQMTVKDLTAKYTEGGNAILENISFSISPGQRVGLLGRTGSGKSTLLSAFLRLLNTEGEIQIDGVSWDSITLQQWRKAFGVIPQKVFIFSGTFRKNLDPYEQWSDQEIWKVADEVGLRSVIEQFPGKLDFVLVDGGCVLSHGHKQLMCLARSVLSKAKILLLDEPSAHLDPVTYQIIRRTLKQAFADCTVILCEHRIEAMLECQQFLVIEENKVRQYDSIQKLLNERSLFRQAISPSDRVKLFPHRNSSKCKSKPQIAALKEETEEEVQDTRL

SMILES: CC1(C)C[C@H]2CCCNc3cccc(n3)S(=N)(=O)NC(=O)c3ccc(-n4ccc(OCCC5(C(F)(F)F)CC5)n4)nc3N1C2 (single isomer, unassigned) [Compound 267, 2-imino-12,12-dimethyl-8-(3-{2-[1-(trifluoromethyl)cyclopropyl]ethoxy}-1H-pyrazol-1-yl)-2λ^6-thia-3,9,11,18,23-pentaazatetracyclo[17.3.1.111,14.05,10]tetracosa-1(23),5,7,9,19,21-hexaene-2,4-dione]
- EC50: < 1 µM
- Max. Activity: +++ (+++ is >60%)

SMILES: C[C@@H]1CC[C@H]2CN(c3nc(N4CCN(CCC(C)(C)C)C4=O)ccc3C(=O)NS(=O)(=O)c3cccc(n3)N1)C(C)(C)C2 (single isomer, unassigned) [Compound 219, 8-[3-(3,3-dimethylbutyl)-2-oxoimidazolidin-1-yl]-12,12,17-trimethyl-2λ^6-thia-3,9,11,18,23-pentaazatetracyclo[17.3.1.111,14.05,10]tetracosa-1(22),5,7,9,19(23),20-hexaene-2,2,4-trione]
- EC50: < 1 µM
- Max. Activity: ++ (++ is 30-60%)

SMILES: CC1(C)C[C@H]2CCCn3ccc(n3)S(=O)(=O)NC(=O)c3ccc(-n4ccc(OCCCC5(C(F)(F)F)CC5)n4)nc3N1C2 (single isomer, unassigned) [Compound 165, 20,20-dimethyl-4-(3-{3-[1-(trifluoromethyl)cyclopropyl]propoxy}-1H-pyrazol-1-yl)-10λ^6-thia-1,3,9,14,22-pentaazatetracyclo[16.2.1.111,14.02,7]docosa-2(7),3,5,11(22),12-pentaene-8,10,10-trione]
- EC50: > 3 µM
- Max. Activity: + (+ is <30%)

SMILES: CC1(C)C[C@H]2CCCn3ccc(n3)S(=O)(=O)NC(=O)c3ccc(-n4ccc(OCCC(C5CC5)C5CC5)n4)nc3N1C2 (single isomer, unassigned) [Compound 154, 4-[3-(3,3-dicyclopropylpropoxy)-1H-pyrazol-1-yl]-20,20-dimethyl-10λ^6-thia-1,3,9,14,22-pentaazatetracyclo[16.2.1.111,14.02,7]docosa-2,4,6,11(22),12-pentaene-8,10,10-trione]
- EC50: < 1 µM
- Max. Activity: +++ (+++ is >60%)

SMILES: CC1(C)C[C@@H]2CCCNc3cccc(n3)S(=O)(=O)NC(=O)c3ccc(N4CC[C@H](CCC5C6(CC6)C56CC6)C4=O)nc3N1C2 (single isomer, unassigned) [Compound 178]
- EC50: < 1 µM
- Max. Activity: +++ (+++ is >60%)

SMILES: CC1(C)C[C@@H]2CCCNc3cccc(n3)S(=O)(=O)NC(=O)c3ccc(N4CC[C@H](OCC56CC7CC(CC(C7)C5)C6)C4=O)nc3N1C2 (single isomer, unassigned) [Compound 244]
- EC50: < 1 µM
- Max. Activity: ++ (++ is 30-60%)

SMILES: CC1(C)C[C@H]2CCCNc3cccc(n3)S(=O)(=O)NC(=O)c3ccc(-n4ccc(OCC5C6(CC6)C56CC6)n4)nc3N1C2 (single isomer, unassigned) [Compound 106, 8-[3-({dispiro[2.0.2.1]heptan-7-yl}methoxy)-1H-pyrazol-1-yl]-12,12-dimethyl-2λ^6-thia-3,9,11,18,23-pentaazatetracyclo[17.3.1.111,14.05,10]tetracosa-1(22),5,7,9,19(23),20-hexaene-2,2,4-trione]
- EC50: < 1 µM
- Max. Activity: +++ (+++ is >60%)

SMILES: CC1(C)CC2CCCNc3cccc(n3)S(=O)(=O)NC(=O)c3ccc(-n4ccc(OCC5C6(CC6)C56CC6)n4)nc3N1C2 (racemic) [Compound 105, 8-[3-({dispiro[2.0.2.1]heptan-7-yl}methoxy)-1H-pyrazol-1-yl]-12,12-dimethyl-2λ^6-thia-3,9,11,18,23-pentaazatetracyclo[17.3.1.111,14.05,10]tetracosa-1(22),5,7,9,19(23),20-hexaene-2,2,4-trione]
- EC50: < 1 µM
- Max. Activity: +++ (+++ is >60%)

SMILES: CC1(C)C[C@@H]2CCCNc3cccc(n3)S(=O)(=O)NC(=O)c3ccc(-n4ccc(OCCC5(C(F)(F)F)CC5)n4)nc3N1C2 [Compound 14, (14S)-12,12-dimethyl-8-(3-{2-[1-(trifluoromethyl)cyclopropyl]ethoxy}-1H-pyrazol-1-yl)-2λ^6-thia-3,9,11,18,23-pentaazatetracyclo[17.3.1.111,14.05,10]tetracosa-1(23),5,7,9,19,21-hexaene-2,2,4-trione]
- EC50: < 1 µM
- Max. Activity: +++ (+++ is >60%)

SMILES: CC1(C)C[C@@H]2CCCNc3cccc(n3)S(=O)(=O)NC(=O)c3ccc(N4CC5CCCCN5C4=O)nc3N1C2 (stereo partly drawn) [Compound 213, (14S)-12,12-dimethyl-8-{3-oxo-octahydroimidazo[1,5-a]pyridin-2-yl}-2λ^6-thia-3,9,11,18,23-pentaazatetracyclo[17.3.1.111,14.05,10]tetracosa-1(23),5(10),6,8,19,21-hexaene-2,2,4-trione]
- EC50: > 3 µM
- Max. Activity: + (+ is <30%)

SMILES: Cc1ccc2nc1NCCC[C@H]1CN(c3nc(-n4ccc(OCCC5(C(F)(F)F)CC5)n4)ccc3C(=O)NS2(=O)=O)C(C)(C)C1 (single isomer, unassigned) [Compound 115, 12,12,20-trimethyl-8-(3-{2-[1-(trifluoromethyl)cyclopropyl]ethoxy}-1H-pyrazol-1-yl)-2λ^6-thia-3,9,11,18,23-pentaazatetracyclo[17.3.1.111,14.05,10]tetracosa-1(23),5(10),6,8,19,21-hexaene-2,2,4-trione]
- EC50: < 1 µM
- Max. Activity: +++ (+++ is >60%)

SMILES: CC1(C)C[C@H]2CCCNc3ccc(cn3)S(=O)(=O)NC(=O)c3ccc(-n4ccc(OCCC5(C(F)(F)F)CC5)n4)nc3N1C2 (single isomer, unassigned) [Compound 73, 12,12-dimethyl-8-(3-{2-[1-(trifluoromethyl)cyclopropyl]ethoxy}-1H-pyrazol-1-yl)-2λ^6-thia-3,9,11,18,20-pentaazatetracyclo[17.2.2.111,14.05,10]tetracosa-1(22),5,7,9,19(23),20-hexaene-2,2,4-trione]
- EC50: < 1 µM
- Max. Activity: +++ (+++ is >60%)

SMILES: CC1(C)C[C@H]2CCCOc3cccc(n3)S(=O)(=O)NC(=O)c3ccc(-n4ccc(OCCC5(C(F)(F)F)CC5)n4)nc3N1C2 (single isomer, unassigned) [Compound 49, 12,12-dimethyl-8-(3-{2-[1-(trifluoromethyl)cyclopropyl]ethoxy}-1H-pyrazol-1-yl)-18-oxa-2λ^6-thia-3,9,11,23-tetraazatetracyclo[17.3.1.111,14.05,10]tetracosa-1(22),5,7,9,19(23),20-hexaene-2,2,4-trione]
- EC50: < 1 µM
- Max. Activity: +++ (+++ is >60%)

SMILES: Cc1c2cnn1CCCC1CN(c3nc(-n4ccc(OCC(C)(C)C(F)(F)F)n4)ccc3C(=O)NS2(=O)=O)C(C)(C)C1 (single isomer, unassigned) [Compound 286, 20,20,22-trimethyl-4-[3-(3,3,3-trifluoro-2,2-dimethylpropoxy)-1H-pyrazol-1-yl]-10λ^6-thia-1,3,9,13,14-pentaazatetracyclo[16.2.1.111,14.02,7]docosa-2,4,6,11(22),12-pentaene-8,10,10-trione]
- EC50: < 1 µM
- Max. Activity: + (+ is <30%)

SMILES: CC1(C)C[C@@H]2CCCNc3cccc(n3)S(=O)(=O)NC(=O)c3ccc(N4CCN(C56CC7CC(CC(C7)C5)C6)C4=O)nc3N1C2 [Compound 230, (14S)-8-[3-(Adamantan-1-yl)-2-oxoimidazolidin-1-yl]-12,12-dimethyl-2λ^6-thia-3,9,11,18,23-pentaazatetracyclo[17.3.1.111,14.05,10]tetracosa-1(22),5,7,9,19(23),20-hexaene-2,2,4-trione]
- EC50: < 1 µM
- Max. Activity: + (+ is <30%)

SMILES: CC1(C)CC[C@H]2CCCNc3cccc(n3)S(=O)(=O)NC(=O)c3ccc(-n4ccc(OCCC(C5CC5)C5CC5)n4)nc3N21 (single isomer, unassigned) [Compound 137, 8-[3-(3,3-Dicyclopropylpropoxy)-1H-pyrazol-1-yl]-12,12-dimethyl-2λ^6-thia-3,9,11,19,24-pentaazatetracyclo[18.3.1.05,10.011,15]tetracosa-1(23),5(10),6,8,20(24),21-hexaene-2,2,4-trione]
- EC50: > 3 µM
- Max. Activity: + (+ is <30%)

SMILES: CC1(C)C[C@H]2CCCNc3cccc(n3)S(=O)(=O)NC(=O)c3ccc(-n4ccc(OCC5C6(CC6)C56CC6)n4)nc3N1C2 (single isomer, unassigned) [Compound 107, 8-[3-({dispiro[2.0.2.1]heptan-7-yl}methoxy)-1H-pyrazol-1-yl]-12,12-dimethyl-2λ^6-thia-3,9,11,18,23-pentaazatetracyclo[17.3.1.111,14.05,10]tetracosa-1(22),5,7,9,19(23),20-hexaene-2,2,4-trione]
- EC50: < 1 µM
- Max. Activity: +++ (+++ is >60%)

SMILES: CC1(C)C[C@@H]2CCCNc3cccc(n3)S(=O)(=O)NC(=O)c3ccc(N4CCN(CC5CCC(F)(F)CC5)C4=O)nc3N1C2 [Compound 214, (14S)-8-{3-[(4,4-Difluorocyclohexyl)methyl]-2-oxoimidazolidin-1-yl}-12,12-dimethyl-2λ^6-thia-3,9,11,18,23-pentaazatetracyclo[17.3.1.111,14.05,10]tetracosa-1(22),5,7,9,19(23),20-hexaene-2,2,4-trione]
- EC50: < 1 µM
- Max. Activity: ++ (++ is 30-60%)

SMILES: CC1CCC2CN(c3nc(N4CCN(CCC(C)(C)C)C4=O)ccc3C(=O)NS(=O)(=O)c3cccc(n3)N1)C(C)(C)C2 (centres unmarked) [Compound 210, 8-[3-(3,3-dimethylbutyl)-2-oxoimidazolidin-1-yl]-12,12,17-trimethyl-2λ^6-thia-3,9,11,18,23-pentaazatetracyclo[17.3.1.111,14.05,10]tetracosa-1(22),5,7,9,19(23),20-hexaene-2,2,4-trione]
- EC50: < 1 µM
- Max. Activity: ++ (++ is 30-60%)
